{
  "source": "patent US9351959B2",
  "about": "“Alpha adreneric receptor agonists for treatment of degenerative disc disease” (WARSAW ORTHOPEDIC INC., priority 2008, dated 2016)",
  "test_system": "Rat Chronic Constriction Injury Model",
  "settings": "0.02 mg/kg/day subcutaneously; compared to unloaded polymer depots; FIG. 4",
  "text": "The inventors evaluated the efficacy of a five Month Clonidine/Polymer Drug Depot in the Rat Chronic Constriction Injury Model. The animal model was the Bennett Model (Wistar rat). The purpose: To determine whether a five month polymer clonidine-eluting depot can improve pain associated behavioral responses in a rat model of neuropathic pain.\nExperimental Design: Four loose chromic gut ligatures, 1 mm apart, were tied around the common sciatic nerve at mid-thigh. Each animal received treatment of test or control article—according to the dosing described in Table 5.\nThe inventors have conducted the present study for a period of 64 days and have employed the following two tests: (1) the Hargreaves test; and (2) the von Frey test. The Hargreaves Tests of Thermal Hyperalgesia were conducted on days 7, 14, 21, 28, 35, 42, 49, 56 and 63. The von Frey monofilament test of mechanical allodynia (performed the day following Thermal testing) were conducted on days-8, 15, 22, 29, 36, 43, 50, 57 and 64.",
  "data": [
    {"smiles": "Clc1cccc(Cl)c1N=C1NCCN1", "note": "[clonidine, 2,6-dichloro-N-2-imidazolidinyldenebenzenamine]", "values": [
      {"measurement": "pain behavioral response (measured as a percentage of baseline) for mechanical allodynia", "result": "reduced the behavioral response"}
    ]}
  ]
}
